Experimental data taken from patent US10226514B2, “Methods and compositions for reducing blood glucose levels” (The Children's Medical Center Corporation, priority 2011, dated 2019).
Where a chain is given by its changes, count along the chain named. Numbers in names are those of the source.

Columns and labels:
[1] = system: XBP1s; assay: XBP1s protein levels in Ad-XBP1s-infected MEFs (western blot); format: cell-based, mouse
Experimental: (§1) MEF cells were from American Type Tissue Collection (ATCC). These cells were grown in Dulbecco's Modified Eagel Medium (DMEM) supplemented with 10% fetal bovine serum (FBS), 10 U/ml penicillin and 1 μg/ml streptomycin at 37° C. and 5% CO2. Fao cells were maintained in RPMI 1640 medium (Invitrogen) supplemented with 10% fetal bovine serum (FBS), 10 U/ml penicillin and 1 μg/ml streptomycin.
(§2) Adenovirus expressing XBP1s T48A, XBP1s S61A, XBP1s T48A/S61A and MKK6Glu were produced with ViraPower Adenoviral Expression System (Invitrogen) according to manufacturer's instruction. Briefly, pAD-XBP1s T48A, pAD-XBP1s S61A, pAd-XBP1s T48A/S61A and pAd-MKK6Glu were linearized by restriction endonuclease digestion with PacI and transfected to 293A cells by Lipofectamine. The media was changed with fresh media every other day until the cytopathic effect was observed. When cytopathic effect reached to 80%, cells were collected by centrifugation. The pellet was resuspended in PBS and subjected to freezing and thawing cycles at −80° C. and 37° C. for 4 times. The supernatant containing the virus was prepared by centrifugation at 4,000 rpm for 20 min at room temperature. Ad-XBP s and Ad-Cre were generated as described previously (Ozcan, L., et al. (2009) Cell metabolism 9:35-51). For infection, cells were incubated with adenovirus in reduced volume of medium containing 1% FBS and antibiotics. Cells were gently rocked every 15 min for 1 h to increase efficiency of infection, and then fresh medium were added and cells were incubated for additional 15 h or 23 h.
Cells were lysed in lysis buffer (25 mM Tris-HCl, pH 7.4; 10 mM NaF; 10 mM Na4P207; 2 mM Na3VO4; 1 mM EGTA; 1 mM EDTA; 1% NP-40; 10 μg/ml Leupeptin; 10 μg/ml Aprotinin; 1 mM PMSF and 20 nM Okadaic acid). After 20 min-rotation at 4° C., cell lysates were centrifuged at 13,200 rpm for 20 min at 4° C. Supernatants were collected and protein concentration was quantified by using Protein Assay Kit (Bio-Rad). The concentrations of protein were normalized with lysis buffer to have equivalent amounts of protein and volume. Protein was denatured by boiling at 100° C. for 5 min in Laemmli buffer. The lysates were cooled to room temperature before loading for western blot analysis.
Western blot analysis was performed as previously described (Ozcan, L., et al. (2009) Cell metabolism 9:35-51). Samples from cell lysates or tissue lysates were resolved by SDS-PAGE and then transferred to polyvinylidene fluoride (PVDF) membrane. After 1 h blocking at room temperature using 10% blocking reagent (Roche), membrane was incubated overnight with primary antibody in Tris-buffered saline solution/Tween (TBST) containing 10% blocking reagent at 4° C. After the incubation, membrane was washed three times in TBST and incubated with secondary antibody for 1 h at room temperature. After three-time washing in TBST, membrane was developed using a chemiluminescence assay system (Roche) and exposed to Kodak films. Relative protein levels were quantified by Image J program.

[2] = system: XBP1s; assay: XBP1s levels in Ad-XBP1s-infected Fao cells; format: cell-based; conditions: Ad-XBP1s-infected Fao cells (rat hepatoma)
Experimental: as §1
as §2, with “Ad-XBP s and Ad-Cre were generated as described previously (Ozcan, L., et al. (2009) Cell metabolism 9:35-51). For infection, cells were incubated with adenovirus in reduced volume of medium containing 1% FBS and antibiotics. Cells were gently rocked every 15 min for 1 h to increase efficiency of infection, and then fresh medium were added and cells were incubated for additional 15 h or 23 h.” left out
Western blot analysis was performed as previously described (Ozcan, L., et al. (2009) Cell metabolism 9:35-51). […] Relative protein levels were quantified by Image J program.

[3] = system: XBP1s; assay: FBS-induced XBP1s nuclear translocation in starved cells; format: cell-based, mouse; conditions: 16 h starved cells, inhibitor 10 μM before 10% FBS
Experimental: XBP1s is generated in the liver when an animal is refed after a fasting period (Park, S. W., et al. (2010) Nature Med 16:429-437), likely mainly due to increased metabolic overloading. To create a metabolic overloading model in cells, following a 16 h starvation in medium without fetal bovine serum (FBS), cells were reincubated for 15, 30 and 60 minutes with medium containing 10% FBS, following which total and nuclear proteins or mRNA were isolated and used to analyze various parameters, including p38 MAPK activation, XBP1s nuclear migration, and splicing. When the cells were starved, then stimulated with medium containing 10% FBS, there was a robust increase in XBP1s splicing and nuclear translocation, as well as in activation of p38 MAPK (FIG. 10A). […] The same experiment was then repeated in p38α^−/− and MKK3,6^−/− cells. […] Moreover, FBS-induced XBP i s nuclear translocation was severely impaired in the MKK3,6^−/− cells (FIG. 10C).

[4] = system: p38 MAPK; assay: Fasting/re-feeding of lean mice treated with p38 MAPK inhibitor; format: in vivo, mouse; conditions: 2 mg/kg/day intraperitoneally three days
Experimental: For liver tissue, a kit from Thermo Scientific (Rockford, Ill.) was used according to the manufacturer's instruction. Liver tissues were cut into small pieces, washed with PBS, and separated from PBS by centrifugation at 500×g for 5 minutes. Collected tissues were resuspended by company-supplied CER I buffer and homogenized with a Dounce homogenizer. Homogenized tissues were vortexed and incubated on ice for 10 minutes. Following CER II buffer addition, tissues were vortexed for 5 seconds, incubated for 1 minute on ice, vortexed again, and then centrifuged for 5 minutes at maximum speed in a microcentrifuge. The supernatant (cytoplasmic fraction) was saved for later analysis. The pellets were resuspended with supplied NER buffer and undergone a series of multiple vortexing (15 seconds) and incubation on ice (10 minutes) for a total of 40 minutes. After 10-minute centrifugation, the supernatant (nuclear fraction) was collected and analyzed with immunoblotting.
Tissues were homogenized with a bench-top homogenizer (Polytron, PT2100) in ice-cold tissue lysis buffer (25 mM Tris-HCl, pH 7.4; 100 mM NaF; 50 mM Na4P207; 10 mM Na3VO4; 10 mM EGTA; 10 mM EDTA; 1% NP-40; 10 μg/ml Leupeptin; 10 μg/ml Aprotinin; 2 mM PMSF and 20 nM Okadaic acid). After homogenization, lysates were rotated for 1 h at 4° C. and then subjected to centrifugation at 13,200 rpm for 20 min at 4° C. The lipid layer was removed and the supernatant was transferred into Eppendorf tubes for centrifugation. This process was repeated for 2 times to get rid of lipid completely. Protein concentration was quantified by using Protein Assay Kit (Bio-Rad). Equivalent protein concentration in each sample was prepared and boiled at 100° C. for 5 min in Laemmli buffer. The lysates were cooled to room temperature before loading for western blot analysis.

[5] = system: XBP1s; assay: Co-expression of kinase constructs with XBP1s in transfected cells; format: cell-based; conditions: p38 MAPK inhibitor 10 μM
Text: To unravel the molecular mechanisms underlying the above observations, several different approaches were taken to explore whether activation of JNK, which is one of the most dominant signaling elements in SAPK signaling, affects XBP1s levels and nuclear translocation. […] It is known that MAPK kinase kinase (MKK) 4 and 7 are upstream kinases responsible for JNK activation (Tournier, C., et al. (2001) Genes Dev 15:1419-1426; Brancho, D., et al. (2003) Genes Dev 17:1969-1978) and anisomycin or TNFα cannot activate JNK in MKK4 and 7 double knock out cells (MKK4,7^−/−) (Tournier, C., et al. (2001) Genes Dev 15:1419-1426; Schaeffer, H. J. & Weber, M. J. (1999) Mol Cell Biol 19:2435-2444). In order to determine whether XBP1s can be regulated by anisomycin treatment in MKK4,7^−/− cells, these cells, along with their controls, were treated with anisomycin after XBP is expression. […] Furthermore, the experiments were repeated in JNK1,2^−/− and MKK4,7^−/− cells with TNFα. […] Finally, an MKK7-JNK1 fusion protein, previously shown to be a specific activator of JNK (Lei, K., et al. (2002) Mol Cell Biol 22:4929-4942), was used to investigate whether activation of JNK alone can have effect on XBP1s.
A constitutively active form of MKK6 (MKK6Glu), one of the upstream kinases of p38 MAPK, was previously generated by mutation of Ser207 and […] to glutamate. […]

[6] = system: XBP1s; assay: Cytoplasmic and nuclear XBP1s protein in cells; format: cell-based, mouse; conditions: mutant XBP1s expressed in cells, anisomycin 25 ng/ml, vs WT
Experimental: Cytoplasmic and nuclear protein fractions were extracted from cells by using nuclear protein extraction kit from Active Motif (Carlsbad, Calif.). Cells were maintained in 10 cm tissue culture dishes for nuclear/cytoplasmic extraction. After removal of the media, cells were washed with ice-cold phosphate buffered saline (PBS) containing phosphatase inhibitors. Subsequently, 3 ml of ice-cold PBS with phosphatase inhibitors was added and then cells were scrapped out of the dish. Collected cells were separated from PBS by centrifugation for 5 minutes at 500 rpm and resuspended with 500 μl of 1× hypotonic buffer. After 15-minute incubation in hypotonic buffer on ice, 25 μl of supplied detergent was added and cells were vortexed 10 seconds. Cells were centrifuged for 30 seconds at 14,000×g and supernatant (cytoplasmic fraction) was saved for further analysis. Remaining pellet, which contains nuclei, were resuspended with 50 μl of provided complete lysis buffer with 1 mM dithiothreitol (DTT), vortexed 10 seconds, and incubated for 30 minutes on ice. After 30-second vortexing and 10-minute centrifugation at 14,000×g, the supernatant was collected and analyzed as nuclear fraction.

## CCOc1nc(NC(=O)Cc2cc(OC)ccc2OC)cc(N)c1C#N [JNK inhibitor VIII]
[1]; JNK inhibitor 10 μM 30 minutes, then anisomycin 25 ng/ml two hours
  effect on anisomycin-mediated upregulation of XBP1s protein levels: no effect

## TNFα
[1]; Ad-XBP1s-infected MEFs, increasing doses, two hours
  XBP1s protein levels: markedly increased XBP1s protein levels
[1]; JNK1,2−/− cells
  XBP1s protein levels: significant increase in XBP1s levels
[1]; MKK4,7−/− cells
  XBP1s levels: significant increase in XBP1s levels
[2]
  XBP1s levels: dramatically upregulating their XBP1s levels

## C[S+]([O-])c1ccc(-c2nc(-c3ccncc3)c(-c3ccc(F)cc3)[nH]2)cc1 (stereo not drawn) [SB203580]
[1]; SB203580 10 μM 30 minutes, then anisomycin 25 ng/ml two hours
  anisomycin-induced increase in XBP1s levels: completely abolished
[3]
  FBS-induced XBP1s nuclear translocation: completely eliminated XBP1s nuclear translocation
  XBP1s splicing: without altering XBP1s splicing
[4]
  GRP78 expression increase in liver after re-feeding: but not in the inhibitor-treated group
  XBP1s mRNA levels in the liver of re-fed mice: significantly increased
[4]; lean C57BL6 mice
  ATF2 phosphorylation: dramatic reduction in phosphorylation
[4]; lean C57BL6 mice, starved 24 hours, refed one hour
  XBP1s nuclear translocation in the liver after re-feeding: completely absent
[5]
  effect of MKK6Glu on XBP1s: blocked the effect of MKK6Glu on XBP1s

B1: T48A: mutant XBP1s with Thr48 residue mutated to alanine (protein)
chain: MVVVAAAPSAATAAPKVLLLSGQPASGGRALPLMVPGPRAAGSEASGAPQARKRQRLTHLSPEEKALRRKLKNRVAAQTARDRKKARMSELEQQVVDLEEENHKLQLENQLLREKTHGLVVENQELRTRLGMDTLDPDEVPEVEAKGSGVRLVAGSAESAAGAGPVVTSPEHLPMDSDTVASSDSESDILLGILDKLDPVMFFKCPSPESASLEELPEVYPEGPSSLPASLSLSVGTSSAKLEAINELIRFDHVYTKPLVLEIPSETESQTNVVVKIEEAPLSSSEEDHPEFIVSVKKEPLEDDFIPELGISNLLSSSHCLRPPSCLLDAHSDCGYEGSPSPFSDMSSPLGTDHSWEDTFANELFPQLISV
[6]
  decrease of XBP1s nuclear translocation: about 49%

B2: S61A: amino acid substitution mutant XBP1s at Ser61 (protein)
chain: B1 chain with A48T, S61A
[6]
  decrease of XBP1s nuclear translocation: about 79%
